From paper PMC7719383 (Clinical and Translational Science, 2020)
Like-named read-outs stand apart in the source and are kept apart here.

Experiments:
[1] = tested on: patients with advanced pancreatic cancer; format: in vivo, human
Plasma pharmacokinetics = format: in vivo, human; settings: for Tmax: median; for effect of co‐administration on exposure: dinaciclib with MK‐2206
[2] = cited from earlier work
pSer473 Akt = settings: lowest dose level tested (60 mg once weekly); cited from earlier work
[3] = A: Dinaciclib/combination N = 11

NC1(c2ccc(-c3nc4ccn5c(=O)[nH]nc5c4cc3-c3ccccc3)cc2)CCC1 [MK‐2206]
Dose reduction MK‐2206 [1, 3]: 0 (0%) n (%)
Dose reduction MK‐2206 ([1]; B: MK‐2206/combination N = 7): 1 (14%) n (%)
Dose reduction MK‐2206 ([1]; Dose escalation N = 21): 1 (5%) n (%)
maximum tolerated dose ([1]; MK‐2206 p.o. weekly in combination with dinaciclib): 135 mg
C ss,min (Plasma pharmacokinetics; MK‐2206 alone, Expansion, arm B, MK‐2206 135 mg, dinaciclib 9 mg/m^2, mean ± SD): 48.0 ± 22.7 (7)
Tmax (Plasma pharmacokinetics; MK‐2206 alone, Expansion, arm B, MK‐2206 135 mg, dinaciclib 9 mg/m^2): 4 (2.17–25.17; 7) hour
T 1/2 (Plasma pharmacokinetics; MK‐2206 in combination, Expansion, arm B, dose reduced, MK‐2206 90 mg, dinaciclib 9 mg/m^2, n = 1): 64.5 (1) h
effect of co‐administration on exposure (Plasma pharmacokinetics): did not alter
half-life (Plasma pharmacokinetics; human, plasma, oral, 90 mg, T 1/2, MK‐2206 alone, Escalation, level 3, MK‐2206 90 mg, dinaciclib 12 mg/m^2, mean ± SD): 68.3 ± 16.6 h
Tmax (Plasma pharmacokinetics; human, plasma, oral, 90 mg, Tmax, MK‐2206 alone, Escalation, level 3, MK‐2206 90 mg, dinaciclib 12 mg/m^2): 5.97 h
half-life (Plasma pharmacokinetics; human, plasma, oral, 135 mg, T 1/2, MK‐2206 alone, Escalation, level 2.5, MK‐2206 135 mg, dinaciclib 9 mg/m^2, mean ± SD): 56.9 ± 9.7 h
Tmax (Plasma pharmacokinetics; human, plasma, oral, 135 mg, Tmax, MK‐2206 alone, Escalation, level 2.5, MK‐2206 135 mg, dinaciclib 9 mg/m^2): 4.5 h
half-life (Plasma pharmacokinetics; human, plasma, oral, T 1/2, MK‐2206 in combination, Expansion, arm A, MK‐2206 135 mg, dinaciclib 9 mg/m^2, mean ± SD): 69.7 ± 23.1 h
Tmax (Plasma pharmacokinetics; human, plasma, oral, Tmax, MK‐2206 in combination, Expansion, arm A, MK‐2206 135 mg, dinaciclib 9 mg/m^2): 10.2 h
Tmax (Plasma pharmacokinetics; human, plasma, oral, Tmax, MK‐2206 in combination, Expansion, arm B, MK‐2206 135 mg, dinaciclib 9 mg/m^2): 5.13 h
recommended phase II dose ([2]; once weekly): 200 mg
pSer473 Akt expression in tumor biopsies (pSer473 Akt): significant reduction

CCc1cnn2c(NCc3ccc[n+]([O-])c3)cc(N3CCCC[C@H]3CCO)nc12 [dinaciclib]
Dose reduction Dinaciclib [1, 3]: 2 (18%) n (%)
Dose reduction Dinaciclib ([1]; B: MK‐2206/combination N = 7): 0 (0%) n (%)
Dose reduction Dinaciclib ([1]; Dose escalation N = 21): 3 (14%) n (%)
maximum tolerated dose ([1]; dinaciclib i.v. weekly in combination with MK‐2206): 9 mg/m^2
association between exposure (Cmax) and race (Plasma pharmacokinetics; African Americans and Asians vs white patients, P = 0.04): lower exposure
effect of co‐administration on exposure (Plasma pharmacokinetics): did not alter
recommended phase II dose ([2]; single agent): 12 mg/m^2
